# Assay results published in PubChem BioAssay (NCI).
#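 A five-concentration, 48-hour dose response in 96-well plates underlies each endpoint, interpolated linearly between surrounding concentrations. GI50 = concentration required for 50% inhibition of growth. TGI marks complete inhibition of growth.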
# How the values were obtained:
# Test in all cases: NCI tumour cell line growth inhibition, 48 h
# [1] = tested on: 786-0 renal
# [2] = tested on: ACHN renal
# [3] = tested on: COLO 205 colon
# [4] = tested on: MDA-MB-435
# [5] = tested on: NCI/ADR-RES ovarian
# [6] = tested on: SR leukemia
# [7] = tested on: HT29 colon
# [8] = tested on: RPMI-8226 leukemia
# [9] = tested on: DLD-1 colon
# [10] = tested on: M19-MEL melanoma
SMILES,GI50 [1] [µM],TGI [1] [µM],GI50 [2] [µM],TGI [2] [µM],GI50 [3] [µM],TGI [3] [µM],GI50 [4] [µM],TGI [4] [µM],GI50 [5] [µM],TGI [5] [µM],GI50 [6] [µM],TGI [6] [µM],GI50 [7] [µM],TGI [7] [µM],GI50 [8] [µM],TGI [8] [µM],TGI [9] [µM],TGI [10] [µM]
O=C(Nc1ccccc1/C=C/c1n[nH]c2ccccc12)c1ccccc1,12.6,26.7,7.71,20.1,1.71,3.6,1.97,13.5,4.69,20,2.87,13.7,1.78,7,3.07,12.8,,
CC(C)CC(NC(=O)C(O)C(N)Cc1ccccc1)C(=O)O (centres undefined),,> 100,,> 100,,> 100,,> 100,,> 100,,> 100,,> 100,,> 100,,
COc1ccc(-c2nn3ncccc3c2-c2ccnc(Nc3ccc(F)c(F)c3)n2)cc1,11.1,> 25,10.4,> 25,15.5,> 25,7.39,> 25,8.27,> 25,18.7,> 25,5.43,> 25,14.7,> 25,,
CC(C)Cn1cnc2c(N)nc3ccccc3c21,25.2,> 87.3,27.9,> 100,20.7,> 88.2,48.9,> 100,49,> 100,> 100,> 100,28.8,> 100,5.5,> 48.3,,
CS(=O)(=O)N(CCC#N)c1ccc(/C=C2\N=C(c3ccccc3Cl)OC2=O)cc1,,> 100,,> 100,,> 100,,,,,,,,> 100,,> 100,> 100,> 100
O=S1(=O)[C@H](c2ccccc2)c2c(-c3ccccc3)sc(-c3ccccc3)c2[C@@H]1c1ccccc1,,> 100,,> 100,,> 100,,,,,,,,> 100,,> 100,> 100,> 100
COCCn1c(Nc2ccc(C(=O)NO)cc2)nc2ccccc21,10.5,23.5,2.85,12.9,2.75,7.88,2.89,11.4,1.3,4.84,1.69,> 100,2.97,> 100,3.7,> 100,,
C=CCn1c(SCC(=O)Nc2ccc(C(=O)/C=C/c3cc(OC)c(OC)c(OC)c3)cc2)nnc1-c1cc(OC)c(OC)c(OC)c1,1.85,4.01,4.16,20.6,4.94,24.7,2.72,10.7,15.3,> 100,2.34,> 100,2.66,6.14,1.51,4.91,,
CC1=NC2(C(=O)O)C3(C(=O)O)N=C(C)OC3(C(F)(F)F)C2(C(F)(F)F)O1 (centres undefined),,> 100,,> 100,,> 100,,,,,,> 100,,> 100,,,> 100,> 100
